Earlier results on three compounds are cited in patent US20150291756A1, “PROCESS FOR THE PRODUCTION OF RIGID FOAMED OBJECTS MADE OF POLYMER MATERIALS” (priority 2013, published 2015).

SMILES strings stand for the structures. Read-outs that look alike come from different tables or passages of the source.

For series [1] the following is noted: toxicological studies.
The conditions of series [2]: substance as such.
The next series has as its system rats. To be noted: 4-hour exposure, decomposition residues of the diazocompound (TSMN for AIBN).
The conditions of series [3]: recommended by OSHA, ACGIH, NIOSH.
In another series the test system is human. To be noted: human inhalative exposure; BASF Risk Assessment study.

For `NC(=O)N=NC(N)=O` [ADC, Azodicarbonamide], the “carcinogenic and genotoxic activity” value in series [1] is “carcinogenic and genotoxic activity”.

`CCC(C)(C#N)N=NC(C)(C#N)CC` (stereo not shown) [AMBN, 2,2′-Azobis(2-methylbutanenitrile)]: in series [2], the “EU Hazard Classification” value is “Harmful”. Further, the “Approximate Lethal Concentration Values by inhalation of its residues (ALC)” value in the series with rats is 8.7 mg/L.

For `CC(C)(C#N)C(C)(C)C#N` [TMSN, 2,2,3,3-tetramethylbutanedinitrile], the “occupational permissible exposure limit” value in series [3] is reported as 0.5 ppm; in series [3] (equivalent of the ppm value), 3 mg/m^3. Further, the “tentative Derived No Effect Level (DNEL)” value in the series on human is given as 25 μg/m^3. Besides, the “Approximate Lethal Concentration Values by inhalation of its residues (ALC)” value in the series on rats is listed as 0.1 mg/L.
